{
  "source": "patent US12233129B2",
  "about": "“Methods and compositions for the treatment of cancer” (priority 2019, dated 2025)",
  "assay_type_in_all_cases": "cell-based, human",
  "key": {"UBXN2A promoter": {"system": "UBXN2A promoter", "test": "UBXN2A promoter luciferase high-throughput drug screen in HCT-116 cells", "method": "Our in vivo results encouraged us to screen for compounds that can enhance expression of UBXN2A. Using the UBXN2A promoter upstream of a luciferase construct that was transiently transfected to HCT-116 cells, we performed a high-throughput drug screen with 1800 FDA approved drugs, synthetic compounds, and natural products. Forty-eight hours after transfection, cells were treated with compounds for 24 hours in triplicate (FIG. 16A). […] We looked at protein expression of UBXN2A as well as P47 (another member of the UBXD family) to confirm the selectivity of VH as a selective enhancer of UBXN2A protein in cells. […] We observed a different level of VH-dependent UBXN2A induction in different segments of the gastrointestinal system (esophagus to rectum; data not shown).\nA cell-based screen was conducted in search of compounds that induce the expression of the UBXN2A gene. The 3.9K base of DNA upstream from the UBXN2A gene on human chromosome 2, including endogenous promoters and necessary enhancers as well as untranslated exon 1, was cloned into MCS-mGL.1, a Gaussia luciferase vector, and transiently transfected into HCT-116 colon cancer cells, with empty MCS-mGL.1 for background expression. […] A glow luciferase activity assay was conducted in triplicate followed by semi-quantitative RT-PCR and WB analysis for UBXN2A, p47 (negative control), or GAPDH± Veratrine or its purified form VTD. […]"}, "LoVo": {"system": "LoVo", "test": "Flow cytometry of CD44+ cancer stem cells", "conditions": "intermediate-dose of VTD", "excerpt": "(§1) Based on the significant effect of long-term exposure in LoVo and U2OS, we hypothesized that VTD could be a potential complementary strategy alongside 5-FU, an effective drug with a high rate of resistant events in colon tumors. To answer this question, we first determined the minimum concentration of 5-FU that has no effect or a very mild effect on cell viability after 10 days' exposure in three cell lines HCT-116, LoVo, and U2OS (data not shown). We performed the 10 days' treatment using a combination of a low dose of VTD (50 μM or 100 μM) plus a suboptimal dose of 5-FU (1 μM or 5 μM).\n(§2) FIG. 20: Sensitization of colon cancer cells to a long-term suboptimal dose of 5-fluorouracil exposure when combined with VTD. (A-D) (A) HCT-116, (B) LoVo, (C) SW-480, and (D) U2OS were treated with VTD (10-300 μM) for 10 days. […] (E-G) (E) HCT-116, (F) LoVo, and (G) U-2OS were treated with suboptimal doses of 5-FU and VTD (50 and 100 μM) for 10 days. […] (J) Tumor tissue lysates from 48 patients with colon cancer along the matched adjacent normal colon tissue lysates were probed with anti-UBXN2A and anti-Actin antibodies, followed by quantitation and normalization of signals. […]"}, "U2OS": {"system": "U2OS", "test": "Flow cytometry of CD44+ cancer stem cells", "conditions": "intermediate-dose of VTD", "excerpt": "as §1, §2"}},
  "data": [
    {"smiles": "COc1ccc(C(=O)O[C@H]2CC[C@@]3(C)[C@@H]4CC[C@H]5[C@]6(O)C[C@H](O)[C@@]7(O)[C@@H](CN8C[C@@H](C)CC[C@H]8[C@@]7(C)O)[C@]6(O)C[C@@]53O[C@]24O)cc1OC", "note": "[VTD, Veratridine]", "values": [
      {"measurement": "UBXN2A promoter transactivation", "setting": "UBXN2A promoter", "value": "transactivates the UBXN2A promoter"},
      {"measurement": "abundance of CD44+ cancer stem cells", "setting": "LoVo", "value": "reduces the abundance of the CD44+ cancer stem cells"},
      {"measurement": "abundance of CD44+ cancer stem cells", "setting": "U2OS", "value": "reduces the abundance of the CD44+ cancer stem cells"}
    ]}
  ]
}
